Where a name gives a salt, the structure may show the parent alone.

In data set [1] the test system is 5 HTP. Briefly: Potentialization of 5 HTP. The data set is classed as in vivo. An excerpt:
The tests used for the pharmacological screening are:
the potentialization of 5 HTP (Ref.: Christensen, A. V. et al., Eur. J. of Pharm. (1977), 41, 153-162)

The nature of data set [2]: Toxicity study in the mouse, oral single dose (LD50). The settings on record: for toxicity: summary in conclusion. It is filed as in vivo. The procedure: The toxicity study was carried out in the conventional mouse, weighing about 20 g.
The substances were administered orally in a single dose of 300 and 1000 mg/kg respectively. At these doses we were not able to determine the LD50 's which are higher >1000 mg/kg.

Data set [3] can be described thus: Anxiolytic activity, group of tests (LAB-X elevated plus-maze, SKINNER, VOGEL). The data set is classed as in vivo, rat. The settings on record: 30 mg/kg by mouth. An excerpt: These compounds were also studied in order to test for anxiolytic activity using a group of tests
(Ref.: LAB-X: Sh. Pellow, Ph. Chopin, S. E. File and M. Briley--Validation of open:closed arm entries in an elevated plus-maze as a measure of anxiety in the rat (Journal of Neuroscience Methods, 14 (1983), 149-167)
SKINNER: GELLER and SEIFTER, Psychopharmacologia (1960) 1, 482-492

Data set [4] can be described thus: Solubility. The data set is classed as physicochemical.

The molecule `COc1ccc(-c2cnn(CC(C)=O)c(=O)n2)cc1` [Example 1, 2-acetonyl 3-oxo 5-p-methoxyphenyl ax.-triazine] gave an ED50 in data set [1] of 25 mg/kg. Moreover, in data set [2] (in vivo, mouse, oral, single dose), the LD50 is over 3000 mg/kg. In addition, the toxicity result in data set [2] is “very low toxicity”. Further, the anxiolytic activity entry in data set [3] is “significant results”.

Consider `Cc1ccc(C2C=NN(C(c3ccccc3)C(O)c3ccccc3)C(=O)N2)cc1` (stereo not drawn) [Example 29, N-2[α(1,2-diphenylethan 1-ol)] 3-oxo 4,5-dihydro 5-p-methylphenyl as.-triazine], for which, in data set [4], the “solubility in alcohols in the hot” value is “Soluble”, the solubility in chloroform entry is “insoluble”, the solubility in ether result is on record as “insoluble” and the solubility in water result is “insoluble”.

`CC(C)C(=O)Cn1ncc(-c2ccccc2)nc1=O` [Example 22, 2-(3-methyl-2-one butyl) 5-phenyl as.-triazine]: in data set [4], the “solubility in alcohols in the hot” value is recorded as “soluble”, the solubility in chloroform entry was “Soluble”, the “solubility in methylene chloride” value is “Soluble” and the solubility in water entry is reported as “insoluble”. For the same molecule, in data set [3], the anxiolytic activity result is “significant results”.

With `CC(=O)Cn1ncc(-c2ccc(OC3CCOC3=O)cc2)nc1=O` (centres unmarked) [Example 3, 2-acetonyl 3-oxo 5-p-(alphaoxy γ butryolactone)phenyl as.-triazine], in data set [4], the solubility in benzene result was “Insoluble”, the solubility in chloroform entry is reported as “Insoluble”, the solubility in ether entry was “Insoluble” and the solubility in water entry is reported as “Insoluble”.

For `Cc1ccc(-c2cnn(CCCCN3CCN(c4cccc(Cl)c4)CC3)c(=O)n2)cc1` [Example 13, 2-N-δ butyl (m-chlorophenyl piperazine) 3-oxo 5-p-methylphenyl as.-triazine], in data set [4], the “solubility in alcohols in the hot” value is “Soluble”, the solubility in chloroform result is on record as “Soluble”, the solubility in ether result is “insoluble” and the “solubility in methylene chloride” value is “Soluble”. Further, in data set [4], the solubility in water result is recorded as “insoluble”. For the same molecule, the “solubility in aqueous dilute acids in the hot” value in data set [4] (aqueous dilute acids) was “Soluble”.

For `CC(=O)Cn1ncc(-c2cccs2)nc1=O` [Example 26, 2-acetonyl 3-oxo 5-γ-thienyl as.-triazine], in data set [4] (chlorinated solvents), the “solubility in chlorinated solvents” value was “Soluble”. For the same molecule, in data set [4], the solubility in ether entry is recorded as “insoluble” and the solubility in water entry was “insoluble”.

As for `COc1ccc(-c2cnn(CC(N)=O)c(=O)n2)cc1` [Example 32, 2-N-acetamido 3-oxo 5-p-methoxyphenyl as.-triazine], in data set [1], it took a dose of 20 mg/kg to reach the 50% effect level (ED50). Also, the toxicity result in data set [2] is “very low toxicity”. Further, in data set [4], the solubility in alcohols entry is “Insoluble”, the solubility in chloroform result is listed as “Insoluble”, the solubility in ether entry is listed as “Insoluble” and the solubility in water result is on record as “Insoluble”.

For `CC(=O)Cn1ncc(-c2ccc(C)cc2)nc1=O` [Example 6, 2-acetonyl 3-oxo 5-p-methylphenyl as.-triazine], in data set [4], the solubility in chloroform entry is recorded as “Soluble”, the solubility in ether entry is given as “insoluble”, the “solubility in methylene chloride” value is recorded as “Soluble” and the solubility in water entry is on record as “insoluble”.

In data set [1], `COc1ccc(-c2cnn(C(C)C(C)=O)c(=O)n2)cc1` (stereo not drawn) [Example 4, 2-alpha-methylacetonyl 3-oxo 5-p-methoxyphenyl as.-triazine] yielded an ED50 of 35 mg/kg. Further, in data set [2], the toxicity entry was “very low toxicity”. Besides, in data set [4], the solubility in chloroform entry was “Soluble”, the “solubility in methylene chloride” value is recorded as “Soluble” and the solubility in water result is recorded as “insoluble”. The anxiolytic activity result in data set [3] is given as “significant results”.

Take `COc1ccc(-c2cnn(CC(=O)C(C)C)c(=O)n2)cc1` [Example 5, 2-(3'-methyl 2'-one butyl) 3-oxo 5-p-methoxyphenyl as.-triazine]: in data set [4], the solubility in benzene result is on record as “poorly soluble”, the solubility in chloroform result is “Soluble”, the solubility in ether result was “poorly soluble” and the “solubility in methylene chloride” value is given as “Soluble”. In addition, in data set [4], the solubility in water entry is recorded as “Insoluble”.

For the molecule `COc1ccccc1-c1cnn(CC(C)=O)c(=O)n1` [Example 23, 2-acetonyl 3-oxo 5-o-methoxyphenyl as.-triazine], in data set [1], the ED50 came to 50 mg/kg. Moreover, in data set [4], the solubility in chloroform entry is on record as “Soluble”, the solubility in ether entry was “insoluble”, the “solubility in methylene chloride” value was “Soluble” and the solubility in water entry is reported as “insoluble”.

As to `COc1ccc(-c2cnn(CCCCCN3CCN(c4cccc(Cl)c4)CC3)c(=O)n2)cc1` [Example 15, 2-N (ε-pentyl m-chlorophenyl piperazine) 3-oxo 5-p-methoxyphenyl as.-triazine], in data set [4], the solubility in chloroform result was “Soluble”, the solubility in ether result is on record as “insoluble”, the “solubility in methylene chloride” value is on record as “Soluble” and the solubility in water result is “insoluble”.

Turning to `Cc1ccc(-c2cnn(CCCN3CCN(c4cccc(Cl)c4)CC3)c(=O)n2)cc1` [Example 14, 2-γ(m-chlorophenylpiperazine)-propyl 3-oxo 5-p-methylphenyl as.-triazine hydrochloride], in data set [4], the solubility in chloroform result was “Soluble”, the solubility in ether entry is on record as “insoluble”, the “solubility in methylene chloride” value is “Soluble” and the solubility in water entry is recorded as “insoluble”.

For `CCC(=O)Cn1ncc(-c2ccc(OC)cc2)nc1=O` [Example 41, 2-(oxo-2' butyl) 3-oxo 5-p.methoxyphenyl as triazine], the “solubility in acetic acid” value in data set [4] (acetic acid) is listed as “Soluble”. Moreover, in data set [4], the solubility in alcohols entry was “Insoluble” and the solubility in water result was “Insoluble”.

Take `Cc1ccc(-c2cnn(C(CCO)C(=O)O)c(=O)n2)cc1` (centres unmarked) [Example 19, 2-[3-(3-carboxy 1-propanol)] 3-oxo 5-p-methylphenyl as.-triazine]: in data set [4], the solubility in alcohols entry is on record as “Poorly soluble”, the solubility in benzene result is recorded as “Poorly soluble”, the solubility in chloroform entry is given as “Poorly soluble” and the solubility in ether entry is “insoluble”. Further, the solubility in water result in data set [4] is on record as “insoluble”.

For the molecule `Cc1ccc(-c2cnn(C(C(=O)c3ccccc3)c3ccccc3)c(=O)n2)cc1` (centres unmarked) [Example 36, 2-N-desyl 3-oxo 5-p-methylphenyl as.-triazine], in data set [4], the “solubility in alcohols in the hot” value is “Soluble”, the solubility in chloroform result is “Soluble”, the “solubility in methylene chloride” value is given as “Soluble” and the solubility in water result is “insoluble”.

For `COc1ccc(C2C=NN(CCCN3CCN(c4cccc(Cl)c4)CC3)C(=O)N2)cc1` (centres unmarked) [Example 12, 2-N-γ propyl(m-chlorophenylpiperazine) 3-oxo 4,5-dihydro 5-p-methoxyphenyl as.-triazine], in data set [4], the “solubility in alcohols in the hot” value is recorded as “Soluble”, the solubility in chloroform result was “Soluble”, the solubility in ether result was “insoluble” and the “solubility in methylene chloride” value is listed as “Soluble”. For the same molecule, in data set [4], the solubility in water entry was “insoluble”. In addition, the “solubility in aqueous dilute acids in the hot” value in data set [4] (aqueous dilute acids) was “Soluble”.

Consider `Cc1ccc(-c2cnn(C3CCOC3=O)c(=O)n2)cc1` (centres unmarked) [Example 20, 2-butyrolactone 3-oxo 5-p-methylphenyl as.-triazine], for which, in data set [4], the solubility in benzene entry is reported as “poorly soluble”, the solubility in chloroform entry is recorded as “Soluble”, the solubility in ether entry is reported as “poorly soluble” and the “solubility in methylene chloride” value is “Soluble”. The solubility in water entry in data set [4] is recorded as “insoluble”.

Molecule `COc1ccc(-c2cnn(C3CCOC3=O)c(=O)n2)cc1` (centres unmarked) [Example 21, 2-γ-butyrolactone 3-oxo 5-p-methoxyphenyl as.-triazine] yielded an ED50 in data set [1] of 27 mg/kg. Further, the toxicity result in data set [2] was “very low toxicity”. In data set [4], the solubility in alcohols entry is reported as “poorly soluble”, the solubility in benzene result is recorded as “poorly soluble”, the solubility in chloroform entry is reported as “Soluble” and the “solubility in methylene chloride” value was “Soluble”. Besides, the solubility in water result in data set [4] was “insoluble”. Besides, the anxiolytic activity entry in data set [3] was “significant results”.

Consider `CCOC(=O)CC(C(=O)OCC)n1ncc(-c2ccc(OC)cc2)nc1=O` (centres unmarked) [Example 27, 2-diethoxysuccinyl 3-oxo 5-p-methoxyphenyl as.-triazine], for which, in data set [4], the solubility in alcohols entry is “Soluble”, the solubility in benzene result was “Soluble”, the solubility in chloroform entry is “Soluble” and the solubility in water entry is “insoluble”.

Turning to `CC(=O)COc1ccc(-c2cnn(C)c(=O)n2)cc1` [Example 9, 2-methyl 3-oxo 5-p-acetonoxyphenyl as.-triazine], the ED50 in data set [1] is 40 mg/kg. Besides, the “solubility in aqueous dilute acids” value in data set [4] (aqueous dilute acids) is reported as “Soluble”. Also, in data set [4], the solubility in chloroform result is given as “insoluble”, the “solubility in methylene chloride” value was “Soluble” and the solubility in water result is listed as “insoluble”. In data set [3], the anxiolytic activity result is listed as “significant results”.

The record behind these values is US4851411A, “5-monoaryl as.-triazin-3-ones substituted in 2-position, and their use as medicaments” (Pierre Fabre Medicament, priority 1986, dated 1989).
